This is an account of results in article PMC6813295, “A tumour-selective cascade activatable self-detained system for drug delivery and cancer imaging” (Nature Communications, 2019).

Where a SMILES comes first, the peptide text is derived from it. The star is where a group is joined. X1 = CC1(C)C(=CC=C2CCCC(C=CC3=[N+](CCCCCC(=O)O)c4ccccc4C3(C)C)=C2*)N(CCCCCC(=O)O)c2ccccc21

The series has as its system H460 cells. Type of series: cell-based, human. Conditions: confocal. As to the method:
Fig. 3 Recognition and self-assembly of molecule 1 in cells. a Western blots of XIAP expression in H460 and 293T cells. b Confocal images of H460 cells treated with or without energy-dependent inhibitor (oligomycin A, 20 μM) for 1 h, and followed by washing with PBS and treated with the molecule 1 (50 μM) for 1 h. c Statistical analysis of average fluorescence intensities in the cytoplasm of H460 cells from confocal images. Data are presented as the mean ± s.d. (n = 100). ***p < 0.001, p values were performed with one-way ANOVA followed by post hoc Tukey’s test for the indicated comparison. d Confocal images of time-dependent monitoring of H460 and 293T cells treated with the molecule 1 (50 μM) for 1 h followed by washing with PBS and replacing the medium and a further incubation up to 48 h. e Statistical analysis of average fluorescence intensities in the cytoplasm of H460 and 293T cells from confocal images with a timescale range of 1–48 h. Data are presented as the mean ± s.d. […] Finally, incubate up to 6 h and imaging by confocal microscope. g Schematic diagram illustrates the process of NBD fluorescence illumination. h Confocal images of H460 cells treatment with molecule 1-NBD (50 μM) for 1 h. i TEM images of ultrathin section of H460 cells treated with molecule I-1 (50 μM) and without the molecule I-1 for up to 12 h. […]

Take `CC[C@H](C)[C@H](NC(=O)[C@@H]1CCCN1C(=O)[C@@H](NC(=O)[C@H](C)N)C(C)C)C(=O)N[C@@H](C)C(=O)N[C@@H](CCC(N)=O)C(=O)N[C@@H](CCCCN)C(=O)N[C@@H](CC(=O)O)C(=O)N[C@@H](CCC(=O)O)C(=O)N[C@H](C(=O)N[C@@H](CC(=O)O)C(=O)N[C@@H](CCCCN)C(=O)N[C@@H](CC(C)C)C(=O)N[C@H](C(=O)N[C@@H](Cc1ccccc1)C(=O)N[C@@H](Cc1ccccc1)C(=O)N[C@@H](C)C(=O)N[C@@H](CCC(=O)O)C(=O)N[C@@H](CSC1=C(C=CC2=[N+](CCCCCC(=O)O)c3ccccc3C2(C)C)CCCC1=CC=C1N(CCCCCC(=O)O)c2ccccc2C1(C)C)C(=O)NCC(=O)O)C(C)C)C(C)C` [molecule 1] (H-AVPIAQKDEVDKLVFFAEC(X1)G-OH): the “uptake pathway into cells” value (H460, filipin III 5 μg/ml, chlorpromazine 10 μg/ml, amiloride 10 μM, 1 h, 50 μM 2 h, 37 °C) is “caveolin-mediated endocytic pathway”. The “internalization into cells, energy dependence” value (H460, oligomycin A 20 μM 1 h, then 50 μM 1 h, n = 100) was “energy-dependent”.
